Consider 3 compounds from patent publication US7432307B2, “Modulators of retinol-retinol binding protein (RBP)-transthyretin (TTR) complex formation” (Sirion Therapeutics, Inc., priority 2004, dated 2008).

The subject of one series is ABCA4 null mutant mice. Briefly: HPR administered to ABCA4 null mutant mice for 28 days; serum retinol, ocular retinoids and A2E. The series is classed as in vivo. The procedure:
In order to further explore the role of HPR in the visual cycle, the in vivo effects of HPR in mice have been examined. Thus, HPR was administered to ABCA4 null mutant mice (5-20 mg/kg, i.p. in DMSO) for periods of 28 days. Control mice received only the DMSO vehicle. At the end of the treatment period, the concentrations of retinol and HPR in serum and retinoid content in ocular tissues was measured. […] Thus, the calculated percent reduction for each of the measured retinoids, and A2E, was nearly identical (see FIG. 6). […] If systemically-administered HPR inhibits ocular LRAT, then reduction of ocular retinoids and A2E should exceed the reduction in serum retinol.
Genetic crosses of RBP4^−/− mice with ABCA4^−/− mice was undertaken to examine the role of RBP in mediation of retinol levels in serum and ocular tissue.

Series [1] in a line: HPR administered to wild type mice for 5 days, illumination, then retinoids in serum and ocular tissue. The series is classed as in vivo. The conditions noted are these: mouse, ocular tissue, ip, 20 mg/kg i.p. in DMSO, read-out: HPR accumulation within ocular tissues during the treatment period. The procedure:
In order to ensure that the observed effects of HPR in ABCA4 null mice were not due to the genetic mutation, HPR (20 mg/kg, i.p. in DMSO) was administered to wild type mice for 5 days. Control mice received only the DMSO vehicle. On the final day of HPR treatment, the mice were exposed to constant illumination (1000 lux for 10 min) order “stimulate” the visual cycle to generate visual chromophore. Immediately following the illumination period, the animals were sacrificed and the concentrations of retinoids in serum and ocular tissue were determined. […] As in the previous study, HPR caused a significant reduction in serum retinol (˜55%), ocular retinol (˜40%) and ocular retinal (˜30%). Although HPR did accumulate within ocular tissues during the treatment period (˜5 μM), no effect on LRAT or Rpe65/isomerase activities was observed.

In the next series the target is T1, retinol-RBP-TTR complex (Homo sapiens, UniProt P02753).
T1 construct: purchased Sigma Chemical Co. (TTR only)
Briefly: High-throughput FRET assay for detection of RBP/TTR interaction (Alexa430-TTR). The series is classed as binding. The conditions noted are these: for inhibition of RBP-TTR interaction in high throughput assay: 384-well format, varied concentrations 0-4 μM, conditions of Example 7. From the text:
Reduction of serum retinol and RBP are correlated with concomitant reductions in toxic lipofliscin fluorophores. Because compounds that affect RBP-TTR interaction will directly affect fluorophore levels in the eye, a high-throughput screen for small molecules which prevent interaction of RBP with TTR was developed. This screen employs probe-labeled forms of RBP and TTR which participate in a unique fluorescence resonance energy transfer (FRET) event when complexed. Compounds which interfere with RBP-TTR interaction prevent FRET. […] The sample is incubated at 37° C. for 30 min and then illuminated with 330 nm light. The emission spectra are shown in the range of 400-600 nm. HPR binds to RBP and prevents interaction with TTR, and here this property of HPR is utilized here to validate the ability of this screen to detect inhibition of RBP-TTR interaction. […] Additionally, the design of this assay permits discrimination between compounds which interact with RBP versus those which interact with TTR. Thus, by using two distinct excitation energies (280 nm and 330 nm, for protein and retinol, respectively) and implementing simultaneous monitoring of the retinol and TTR-probe fluorescence, the “target” of a presumptive small molecule can be easily determined.
In order to facilitate screening of large numbers of test compounds, the RBP-TTR assay has been adapted to a 384-well plate format. This transition required re-evaluation of the reagent concentrations and minimal assay volume for maintaining solubility and detection sensitivity. Under the 384-well plate format, the assay can be efficiently performed in a 50 μl volume using 0.5 μM apo-RBP, 0.5 μM TTR, 2-8 μM test compound and 1 μM retinol. The microplate with minimal fluorescence background, best optical clarity and most appropriate well design was determined to be Corning's model #3711.
Accordingly, HPR was employed at varied concentrations (from 0-4 μM), using the conditions specified in Example 7, to evaluate the high throughput assay.
The mechanism of action underlying this effect can be explained by the disruption of RBP-TTR interactions. In order to explore this possibility and to further validate the RBP-TTR screen, the effects of all-trans retinoic and 13-cis retinoic acid, using the conditions the conditions specified for analysis of HPR, were examined.

For the next series, the target named is T2, LRAT (Homo sapiens, UniProt O95237).
T2 sequence (O95237 1-230): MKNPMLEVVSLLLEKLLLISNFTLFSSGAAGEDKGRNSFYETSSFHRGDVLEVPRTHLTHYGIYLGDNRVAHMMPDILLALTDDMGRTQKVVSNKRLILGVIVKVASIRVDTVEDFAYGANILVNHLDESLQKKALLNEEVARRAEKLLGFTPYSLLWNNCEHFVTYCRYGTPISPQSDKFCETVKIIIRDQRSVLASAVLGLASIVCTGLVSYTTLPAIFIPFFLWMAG
Briefly: In vitro analyses of LRAT activity. The series is classed as biochemical. The conditions noted are these: HPR pre-incubated with enzyme source material.

Another series deals with serum retinol and RBP. The conditions noted are these: cited from earlier work; for reduction in circulating RBP and circulating retinol in vivo: literature (several investigators; Berni et al. 1993).
For a further series, the target named is RBP-TTR interaction (Homo sapiens, UniProt P02753). The conditions noted are these: literature (Malpeli et al.; Holven et al.; Radu et al.); cited from earlier work.
[2] abbreviates: 5-20 mg/kg i.p. in DMSO, 28 days.

Entries after “also recorded” stand apart in the source; their conditions may differ.

`CC1=C(/C=C/C(C)=C/C=C/C(C)=C/C(=O)Nc2ccc(O)cc2)C(C)(C)CCC1` [HPR, N-(4-hydroxyphenyl)retinamide]: in the series with ABCA4 null mutant mice (setting [2]), the “reductions in A2E” value is recorded as “commensurate reductions”, the “reductions in ocular retinoids” value was “commensurate reductions” and the “reductions in serum retinol as a function of increasing serum HPR” value was “Profound reductions”. Moreover, the “effect on visual cycle proteins (e.g., LRAT) when administered systemically” value with ABCA4 null mutant mice (systemic administration) is recorded as “limited effect”. For the same compound, in series [1], the concentration at 5 days was around 5 µM. In addition, the “retinol and TTR-probe fluorescence (loss of complexation)” value at retinol-RBP-TTR complex (1 μM HPR, 0.5 μM unlabeled RBP + 0.5 μM Alexa430-TTR, 37° C., 30 min, 330 nm excitation) was “significantly reduced”. Moreover, the “inhibition of RBP-TTR interaction in high throughput assay” value (“inhibition of RBP-TTR interaction” for short) at retinol-RBP-TTR complex was “inhibit RBP-TTR interaction”. In addition, on LRAT, the “LRAT activity in vitro” value is “inhibition of LRAT activity”. Further, the “reductions in serum retinol and RBP” value with serum retinol and RBP (literature (Formelli et al.; Torrisi et al.)) was “profound reductions”. For the same compound, in the series on serum retinol and RBP, the “reduction in circulating RBP and circulating retinol in vivo” value (“reduction … in vivo” below) was “established in vivo”. For the same compound, the “interaction of TTR with RBP in vitro” value at RBP-TTR interaction is on record as “interferes with the normal interaction of TTR with RBP; also recorded: effective inhibitor”.

Take `CC1=C(/C=C/C(C)=C/C=C/C(C)=C/C(=O)O)C(C)(C)CCC1` [all-trans retinoic acid, all-trans-retinoic acid]: the “inhibition of RBP-TTR interaction” value on retinol-RBP-TTR complex is given as “entirely consistent with the in vivo data”. For the same compound, the “reduction … in vivo” value in the series on serum retinol and RBP is listed as “observed in vivo”.

Take `CC1=C(/C=C/C(C)=C/C=C/C(C)=C\C(=O)O)C(C)(C)CCC1` [13-cis retinoic acid, 13-cis-retinoic acid]: the “inhibition of RBP-TTR interaction” value against retinol-RBP-TTR complex is “entirely consistent with the in vivo data”. For the same compound, the “reduction … in vivo” value in the series with serum retinol and RBP is on record as “observed in vivo”.
